The nature of data set [1]: tetrabenazine-induced sedation test in the rat (general statements on antidepressant activity). The class given is in vivo. The note with it: acceptable salts.
A short description of data set [2]: Anti-tetrabenazine test (ptosis and sedation), Example 37. As to conditions: Mus musculus, po. It is filed as in vivo, Female albino mice. As to the method: Female albino mice were grouped, six per cage. Compounds of formula (I) as the respective salt in saline solution were administered orally, thirty minutes prior to the administration of tetrabenazine, 50 mg/kg, i.p. The animals were scored according to the method of V. G. Vernier, H. M. Hanson and C. A. Stone: Psychosomatic medicine, ch.

The nature of data set [3]: in vivo. The note with it: mouse, po, mice, p.o. as salt in saline, deaths within two days. As to the method:
Several groups of mice were treated with specific doses of compounds of formula (I) as orally administered salts in saline solution. After treatment of each group with a different dose of a specific compound the number of mice dead in each group within two days was noted. […] The LD50 value is the lethal dose required to kill half of the treated animals.
The procedure was repeated with other groups of mice for other compounds of formula (I).

Setting [4] is: ptosis, mice, p.o. as salt in saline, 30 min before tetrabenazine 50 mg/kg i.p., read-out: Anti-depressant activity, approx. ED50 values, p.o., Ptosis.
Where [5] appears, read: sedation, mice, p.o. as salt in saline, 30 min before tetrabenazine 50 mg/kg i.p., read-out: Anti-depressant activity, approx. ED50 values, p.o., Sedation.

SMILES strings stand for the structures. Structures can show the parent of a compound that is named as a salt. Where two headings read alike, the source gives them in different places.

As for `CCCCCC(C)NC(=O)CN` (stereo not drawn) [2-amino-N-(1-methylhexyl)acetamide], the “antidepressant activity in the tetrabenazine-induced sedation test” value (“antidepressant activity” for short) in data set [1] is recorded as “have shown antidepressant activity”.

On to `CC(CC1CCCCC1)NC(=O)CN` (racemic) [Example 9, hydrogen fumarate, (±)-2-Amino-N-(2-cyclohexyl)-1-methylethyl)acetamide hydrogen fumarate], for which the ED50 (as a rule, the midpoint of the dose-response relation) is roughly 6 mg/kg in data set [2] (setting [4]) and roughly 7.5 mg/kg in data set [2] (setting [5]).

As to `CC(C)CCCC(C)(C)NC(=O)CN` [Example 12, hydrogen succinate, 2-amino-N-(1,1,5-trimethylhexyl)acetamide], the ED50 in data set [2] (setting [4]) is roughly 8 mg/kg; in data set [2] (setting [5]), roughly 2.5 mg/kg.

On to `CCCCCCC(C)(C)NC(=O)CN` [Example 7, hydrogen fumarate, 2-Amino-N-(1,1-dimethylheptyl)acetamide], for which, in data set [3], the LD50 (usually the dose expected to kill half of the subjects tested) at 48 h worked out at 1000 mg/kg.

On to `CC(C)(CC1CCCC1)NC(=O)CN` [2-amino-N-(2-cyclopentyl-1,1-dimethylethyl)acetamide], for which the “antidepressant activity” value in data set [1] is recorded as “have shown antidepressant activity”.

Turning to `CC(C)CCCC(C)(C)NC(=O)CN` [2-amino-N-(1,1,5-trimethylhexyl)acetamide], the “antidepressant activity” value in data set [1] is given as “have shown antidepressant activity”.

Take `CCCCC(C)(C)NC(=O)CN.O=C(O)C(=O)O` [Example 5, hydrogen oxalate, 2-amino-N-(1,1-dimethylpentyl)acetamide hydrogen oxalate]: the median lethal dose (LD50) at 48 h in data set [3] was determined as 536 mg/kg. The ED50 was roughly 20 mg/kg in data set [2] (setting [4]) and roughly 10 mg/kg in data set [2] (setting [5]).

For the compound `CC(C)(CC1CCCC1)NC(=O)CN.CCO.O=C(O)/C=C/C(=O)O` [Example 11, hydrogen fumarate, 2-Amino-N-(1,1-dimethyl-2-cyclopentylethyl)acetamide hydrogen fumarate monoethanolate], in data set [3], the LD50 at 48 h is 575 mg/kg. In addition, the ED50 is roughly 5 mg/kg in data set [2] (read-out: Anti-depressant activity, approx. ED50 values, p.o., Ptosis) and roughly 5 mg/kg in data set [2] (read-out: Anti-depressant activity, approx. ED50 values, p.o., Sedation).

Take `CC1(NC(=O)CN)CCCCCC1` [Example 4, hydrogen oxalate, 2-Amino-N-(1-methylcycloheptyl)acetamide]: the LD50 at 48 h in data set [3] was found to be 1110 mg/kg. The ED50 in data set [2] (setting [4]) is roughly 5 mg/kg; in data set [2] (setting [5]) it was roughly 10.6 mg/kg.

Turning to `CC1(NC(=O)CN)CCCCC1` [Example 3, hydrogen oxalate, 2-Amino-N-(1-methylcyclohexyl)acetamide], in data set [3], the LD50 at 48 h is greater than 2000 mg/kg. Also, the figures for the ED50 in data set [2] (setting [4]) and in data set [2] (setting [5]) were roughly 6.92 mg/kg and roughly 5.69 mg/kg, respectively.

Take `CCCCCC(C)(C)NC(=O)CN` [Example 2, hydrogen oxalate, 2-amino-N-(1,1-dimethylhexyl)acetamide]: the ED50 in data set [2] (setting [4]) was roughly 3.5 mg/kg; in data set [2] (setting [5]), roughly 2.3 mg/kg.

On to `CCCC(C)CC(C)(C)NC(=O)CN` (stereo not drawn) [Example 6, hydrogen fumarate, 2-amino-N-(1,1,3-trimethylhexyl)acetamide], for which the results for the ED50 in data set [2] (setting [4]) and in data set [2] (setting [5]) were roughly 18.7 mg/kg and roughly 9.5 mg/kg, respectively.

As for `CCCCCC(C)NC(=O)CN.O=C(O)CCC(=O)O` (stereo not drawn) [Example 8, hydrogen succinate, 2-Amino-N-(1-methylhexyl)acetamide hydrogen succinate], the LD50 at 48 h in data set [3] amounted to 500 mg/kg. The 50% effective dose (ED50) in data set [2] (setting [4]) is roughly 3.8 mg/kg; in data set [2] (setting [5]) it was roughly 2.7 mg/kg.
